Like-named read-outs stand apart in the source and are kept apart here.
Key:
PC-3 [1] = assay: MTT viability assay, PC-3; assay type: cell-based; details: MTT, 24 h incubation, mean ± standard error
Protocol: (§1) Using concentrations ranging from 0 to 100 μM against PC-3, SKOV-3, and HeLa cancerogenic cell lines, target compounds 4a–l were assessed for their anticancer activities[53] and compared with the commercially available Vinblastine and Doxorubicin. […] The compounds with the greatest cytotoxic activity against the cancerous cell lines PC-3, SKOV-3, and HeLa were 4a–c, 4g, and 4h. […] We selected the cytotoxic active compounds 4a–c, 4g, and 4h to be evaluated against MCF-7/ADR cancerogenic and HFL-1 and WI-38 non-cancerogenic cell lines (Figs. 7, 8 and Table 1).
(§2) The tumor cell lines (PC-3, SKOV-3, and HeLa), resistant cell strains (MCF-7/ADR) and the normal cell lines, (HFL-1, WI-38) were obtained from the American Type Culture Collection (ATCC, Rockville, MD, USA).
(§3) The tumor cell lines were suspended in medium at concentration 5 × 10^4 cells well^−1 in Corning® 96-well tissue culture plates and then incubated for 24 h. The tested compounds with concentrations ranging from 0 to 100 μM were then added into 96-well plates (six replicates) to achieve six different concentrations for each compound. Six vehicle controls with media or 0.5% DMSO were run for each 96 well plate as a control. After incubating for 24 h, the numbers of viable cells were determined by the MTT test[53]. Briefly, the media was removed from the 96 well plates and replaced with 100 μl of fresh culture RPMI 1640 medium without phenol red then 10 μl of the 12 mM MTT stock solution (5 mg of MTT in 1 ml of PBS) to each well including the untreated controls. The 96-well plates were then incubated at 37 °C and 5% CO2 for 4 h. An 85-μl aliquot of the media was removed from the wells, and 50 μl of DMSO was added to each well and mixed thoroughly with the pipette and incubated at 37 °C for 10 min. Then, the optical density was measured at 590 nm with the microplate reader (Sunrise, TECAN, Inc, USA) to determine the number of viable cells and the percentage of viability was calculated as […] where ODt is the mean optical density of wells treated with the tested sample and ODc is the mean optical density of untreated cells. The relation between surviving cells and drug concentration is plotted to get the survival curve of each tumor cell line after treatment with the specified compound. The 50% inhibitory concentration (IC50), the concentration required to cause toxic effects in 50% of intact cells, was estimated from graphic plots of the dose response curve for each concentration.

SKOV-3 = assay: MTT viability assay, SKOV-3; assay type: cell-based; details: MTT, 24 h incubation, mean ± standard error
Protocol: as §1, §2, §3

HeLa [2] = assay: MTT viability assay, HeLa; assay type: cell-based; details: 24 h incubation, mean ± standard error
Protocol: as §1, §2, §3

MCF-7 = tested on: MCF-7; parameters: method as in PMID 31586716; details: Fig. 5, 9-Br first generation derivatives; cited from earlier work
HCT-116 = tested on: HCT-116; parameters: method as in PMID 31586716; details: Fig. 5, 9-Br first generation derivatives; cited from earlier work
HepG-2 = tested on: HepG-2; parameters: method as in PMID 31586716; details: Fig. 5, 9-Br first generation derivatives; cited from earlier work
MDA-MB-231 = tested on: MDA-MB-231; parameters: method as in PMID 34670333; details: Fig. 5, 9-OMe second generation derivatives; cited from earlier work
A549 = tested on: A549; parameters: method as in PMID 34670333; details: Fig. 5, 9-OMe second generation derivatives; cited from earlier work
HeLa [3] = tested on: HeLa; parameters: method as in PMID 34670333; details: Fig. 5, 9-OMe second generation derivatives; cited from earlier work
MIA PaCa-2 = tested on: MIA PaCa-2; parameters: method as in PMID 34670333; details: Fig. 5, 9-OMe second generation derivatives; cited from earlier work
RPMI 7951 = tested on: RPMI 7951; parameters: method as in PMID 34670333; details: Fig. 5, 9-OMe second generation derivatives; cited from earlier work
PC-3 [4] = tested on: PC-3; parameters: method as in PMID 34670333; details: Fig. 5, 9-OMe second generation derivatives; cited from earlier work

SMILES | IC50 (PC-3 [1]; Homo sapiens, PC-3) | IC50 (SKOV-3; Homo sapiens, SK-OV-3) | IC50 (HeLa [2]; Homo sapiens, HeLa) | melting point | IC50 (MDA-MB-231) | IC50 (A549) | IC50 (HeLa [3]) | IC50 (MIA PaCa-2) | IC50 (RPMI 7951) | IC50 (PC-3 [4]) | also measured
N#CC1=C(N)Oc2ccc3ccc(O)cc3c2C1c1ccc(Cl)cc1 (stereo not shown) [4d, 3-Amino-1-(4-chlorophenyl)-9-hydroxy-1H-benzo[f]chromene-2-carbonitrile] | 8.8 ± 0.7 µM | 35.6 ± 0.4 µM | 21.9 ± 1.1 µM | 285 to 286 °C |  |  |  |  |  |  | 
N#CC1=C(N)Oc2ccc3ccc(O)cc3c2C1c1ccc(Br)cc1 (stereo not shown) [4e, 3-Amino-1-(4-bromophenyl)-9-hydroxy-1H-benzo[f]chromene-2-carbonitrile] | 8.8 ± 1.2 µM | 4.8 ± 1.1 µM | 7.9 ± 1.6 µM | 285 to 286 °C |  |  |  |  |  |  | 
Cc1ccc(C2C(C#N)=C(N)Oc3ccc4ccc(O)cc4c32)cc1 (stereo not shown) [4f, 3-Amino-1-(4-methylphenyl)-9-hydroxy-1H-benzo[f]chromene-2-carbonitrile] | 37.2 ± 1.3 µM | 35.2 ± 1.3 µM | 33.7 ± 1.3 µM | 258 to 259 °C |  |  |  |  |  |  | 
N#CC1=C(N)Oc2ccc3ccc(O)cc3c2C1c1ccc(OCc2ccccc2)cc1 (stereo not shown) [4i, 3-Amino-1-(4-(benzyloxy)phenyl)-9-hydroxy-1H-benzo[f]chromene-2-carbonitrile] | 3.2 ± 1 µM | 3.5 ± 0.3 µM | 3.3 ± 0.3 µM | 269 to 279 °C |  |  |  |  |  |  | 
N#CC1=C(N)Oc2ccc3ccc(O)cc3c2C1c1ccc2c(c1)OCO2 (stereo not shown) [4j, 3-Amino-1-(benzo[d][1,3]dioxol-5-yl)-9-hydroxy-1H-benzo[f]chromene-2-carbonitrile] | 6.6 ± 0.5 µM | 3.9 ± 0.6 µM | 2.5 ± 0.2 µM | 260 to 261 °C |  |  |  |  |  |  | 
N#CC1=C(N)Oc2ccc3ccc(O)cc3c2C1c1cccnc1 (stereo not shown) [4k, 3-Amino-9-hydroxy-1-(pyridin-3-yl)-1H-benzo[f]chromene-2-carbonitrile] | 10.6 ± 0.5 µM | 6.3 ± 0.8 µM | 76.4 ± 0.7 µM | 296 to 297 °C |  |  |  |  |  |  | 
N#CC1=C(N)Oc2ccc3ccc(O)cc3c2C1c1ccncc1 (stereo not shown) [4l, 3-Amino-9-hydroxy-1-(pyridin-4-yl)-1H-benzo[f]chromene-2-carbonitrile] | 17.7 ± 0.7 µM | 5.1 ± 0.8 µM | 11.5 ± 0.9 µM | 294 to 295 °C |  |  |  |  |  |  | 
CC[C@]1(O)C[C@@H]2CN(CCc3c([nH]c4ccccc34)[C@@](C(=O)OC)(c3cc4c(cc3OC)N(C)[C@H]3[C@@](O)(C(=O)OC)[C@H](OC(C)=O)[C@]5(CC)C=CCN6CC[C@]43[C@@H]65)C2)C1 [Vinblastine, reference compound] |  |  |  |  |  |  |  |  |  |  | IC50 (PC-3 [1]): 7.5 ± 1.3 µM; IC50 (SKOV-3): 3.2 ± 1.2 µM; IC50 (HeLa [2]): 5.7 ± 1.1 µM
N#CC1=C(N)Oc2ccc3ccc(Br)cc3c2C1c1cccc(Cl)c1 (stereo not shown) [compound 1] |  |  |  |  |  |  |  |  |  |  | IC50 (MCF-7): 45.8 µM; IC50 (HCT-116): 1.36 µM; IC50 (HepG-2): 0.77 µM
N#CC1=C(N)Oc2ccc3ccc(Br)cc3c2C1c1ccc(Cl)cc1 (stereo not shown) [compound 2] |  |  |  |  |  |  |  |  |  |  | IC50 (MCF-7): 9.63 µM; IC50 (HCT-116): 0.8 µM; IC50 (HepG-2): 1.67 µM
N#CC1=C(N)Oc2ccc3ccc(Br)cc3c2C1c1cccc(Cl)c1Cl (stereo not shown) [compound 3] |  |  |  |  |  |  |  |  |  |  | IC50 (MCF-7): 0.49 µM; IC50 (HCT-116): 0.64 µM; IC50 (HepG-2): 7.59 µM
COc1ccc2ccc3c(c2c1)C(c1ccc(Br)cc1)C(C#N)=C(N)O3 (stereo not shown) [compound 6] |  |  |  |  | 7.8 µM | 12.7 µM | 11.6 µM | 6.8 µM | 5.9 µM | 13.6 µM | 
COc1ccc2ccc3c(c2c1)C(c1ccc(I)cc1)C(C#N)=C(N)O3 (stereo not shown) [compound 7] |  |  |  |  | 8.9 µM | 13.1 µM | 12.1 µM | 6.2 µM | 6.5 µM | 12.9 µM | 
COc1ccc2ccc3c(c2c1)C(c1ccc(Cl)cc1Cl)C(C#N)=C(N)O3 (stereo not shown) [compound 8] |  |  |  |  | 7.1 µM | 6.8 µM | 7.6 µM | 6 µM | 5.3 µM | 8.7 µM | 
COc1ccc2ccc3c(c2c1)C(c1cc(Cl)ccc1Cl)C(C#N)=C(N)O3 (stereo not shown) [compound 9] |  |  |  |  | 8.1 µM | 8.5 µM | 13.2 µM | 6.8 µM | 5.7 µM | 11.5 µM | 
COc1ccc2ccc3c(c2c1)C(c1ccc(Cl)c(Cl)c1)C(C#N)=C(N)O3 (stereo not shown) [compound 10] |  |  |  |  | 8.4 µM | 13.6 µM | 12.9 µM | 6.2 µM | 5.1 µM | 14.6 µM | 

From paper PMC10981727, “Design, synthesis and bioactivity study on oxygen-heterocyclic-based pyran analogues as effective P-glycoprotein-mediated multidrug resistance in MCF-7/ADR cell” (Scientific Reports, 2024)
